Assay: Pharmacokinetics after oral administration to a human
Details: in vivo
[1] = single-dose oral administration of 30 mg to a human

Work on `CC[C@@H](Nc1c(Nc2cccc(C(=O)N(C)C)c2O)c(=O)c1=O)c1ccc(C)o1` [formula (1.0A)] yielded a Tmax (oral administration to a human, read-out: median Tmax) of 0.5 to 2 h, an AUC [1] of 484 to 489 ng·h/mL and a Cmax [1] of 122 to 147 ng/mL.
